Paper PMC10654576, “Isothermal chemical denaturation assay for monitoring protein stability and inhibitor interactions” (Scientific Reports, 2023)
“Also recorded” adds a separate entry of the source.

Assays:
[1] = molecular target: MDH; parameters: method as in PMID 225321; settings: MDH/NADH interaction; cited from earlier work
[2] = molecular target: T1, malate dehydrogenase (MDH) (Sus scrofa, UniProt P00346); test: FRET-Probe thermal shift assay (TSA), MDH with NADH; format: binding; settings: for Tm of MDH with NADH: 25 nM MDH
T1 construct: purchased Sigma-Aldrich (St. Louis, MO, USA)
T1 sequence (P00346 25-338): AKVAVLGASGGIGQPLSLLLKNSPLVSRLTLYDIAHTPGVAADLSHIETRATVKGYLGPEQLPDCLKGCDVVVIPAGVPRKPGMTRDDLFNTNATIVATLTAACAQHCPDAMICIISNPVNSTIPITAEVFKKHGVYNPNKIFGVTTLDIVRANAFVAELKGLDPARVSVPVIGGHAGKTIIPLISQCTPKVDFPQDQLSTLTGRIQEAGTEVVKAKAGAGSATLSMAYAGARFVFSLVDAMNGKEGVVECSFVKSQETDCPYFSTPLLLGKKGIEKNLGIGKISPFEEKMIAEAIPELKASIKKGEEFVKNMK
Method: All FRET-Probe TSA were conducted in triplicates using a single-step protocol, by adding the sample protein in 5 µL and FRET-Probe (0.5 nM) in 20 µL volumes. All concentrations are reported in a 25 µL final volume. Assays were performed in an assay buffer containing 10 mM HEPES (pH 7.5) supplemented with 0.001% (v/v) Triton X-100.

[3] = molecular target: T2, MDH (Sus scrofa, UniProt P00346); test: FRET-Probe isothermal chemical denaturation (ICD) assay, MDH; format: binding; settings: 25 nM MDH
T2 construct: purchased Sigma-Aldrich (St. Louis, MO, USA)
T2 sequence (P00346 25-338): T1 sequence (P00346 25-338)
Method: (§1) All isothermal chemical denaturation (ICD) assays were conducted in triplicates at RT using a single-step protocol with 25 µL final volume. Sample protein and ligand were added in 5 µL in a buffer (10 mM HEPES (pH 7.5), 10 mM NaCl, (v/v) 0.01% Brij 30) without denaturant. FRET-Probe (0.5 nM) was added to the assay buffer supplemented with chemical denaturant, urea (0–5 M), ethanol (0–30%) or 1-propanol (0–50%). Additionally, 0.2 mM EDTA was used in combination with alcohols.
(§2) In all ICD protein assays, time-resolved Förster resonance energy transfer (TR-FRET) signal was monitored kinetically at multiple time points during 150 min incubation. In all assays with protein binding ligands, 30 min preincubation prior denaturant addition was performed. In acid induced denaturation assay, GTP (0–2 µM) and NADH (0–50 µM) were titrated with KRAS^G12V and MDH, respectively. 1-propanol (30–50%) ICD assays were also performed for MDH in the presence of NADH (0–50 µM) and (20%) for KRAS^G12V using GTP (0–10 µM). […] Additionally, urea was tested with 1 µM GTP with KRAS^G12V.

[4] = molecular target: T3, KRAS^G12V (Homo sapiens, UniProt P01116, G12V); test: FRET-Probe isothermal chemical denaturation (ICD) assay, KRAS^G12V; format: binding; settings: for S/B ratio, denaturation with and without GTP: 1 µM GTP
T3 construct: Monomer (2-188); host or cells: E. coli
Method: as §1, §2

Which Kd [1] does the source give for `NC(=O)C1=CN([C@@H]2O[C@H](COP(=O)(O)OP(=O)(O)OC[C@H]3O[C@@H](n4cnc5c(N)ncnc54)[C@H](O)[C@@H]3O)[C@@H](O)[C@H]2O)C=CC1` [NADH, reduced nicotinamide adenine dinucleotide] here?
Its Kd is 3800 nM.

And the “Tm of MDH with NADH” value ([2]; 5 µM NADH)?
The value was 47.9 ± 0.6 °C.

What about the “Tm of MDH with NADH” value ([2]; 50 µM NADH) of the same compound?
The value was 51.7 ± 0.2 °C.

What about the “Δ Tm of MDH” value ([2]; 5 µM NADH) of the same compound?
Its value is 1.2 °C.

And the “Δ Tm of MDH” value ([2]; 50 µM NADH)?
Its value is 5.0 °C.

And the EC50 ([3]; 30–50% 1-propanol, 60 min incubation)?
Its EC50 is 29000 to 38000 nM.

And the EC50 ([3]; pH 5 denaturation buffer, RT, 90 min incubation)?
Its EC50 is 4700 ± 800 nM.

And the “ligand-induced stabilization of MDH” value ([3]; pH 5, 5 and 50 µM NADH, RT)?
The value was “clear ligand-induced stabilization”.

Which “TR-FRET signal level compared with protein alone” value ([4]; 50 nM KRAS^G12V, pH 5, 2 and 10 µM ATP) does the source give for `Nc1ncnc2c1ncn2[C@@H]1O[C@H](COP(=O)(O)OP(=O)(O)OP(=O)(O)O)[C@@H](O)[C@H]1O` [ATP] here?
Its value is “no change of signal level; also recorded: in the same range”.

With `Nc1nc2c(ncn2[C@@H]2O[C@H](COP(=O)(O)OP(=O)(O)OP(=O)(O)O)[C@@H](O)[C@H]2O)c(=O)[nH]1` [GTP, guanosine-5'-triphosphate] as the compound, how does the “S/B ratio, denaturation with and without GTP” value ([4]; 50 nM KRAS^G12V, 1 M urea, 60 min) read?
The value was 15.1.

What about the “S/B ratio, denaturation with and without GTP” value ([4]; 50 nM KRAS^G12V, 2 M urea, 60 min) of the same compound?
The value was 20.3.

And the EC50 ([4]; 50 nM KRAS^G12V, pH 5 denaturation buffer, 30 min)?
Its EC50 is 4.5 ± 1.9 nM.

What about the EC50 ([4]; 50 nM KRAS^G12V, pH 5 denaturation buffer, 60 min) of the same compound?
Its EC50 is 2.6 ± 0.7 nM.

And the EC50 ([4]; 50 nM KRAS^G12V, pH 5 denaturation buffer, 90 min)?
Its EC50 is 3.5 ± 0.1 nM.

What about the EC50 ([4]; 50 nM KRAS^G12V, pH 5 denaturation buffer, 120 min) of the same compound?
The EC50 was 4.6 ± 0.3 nM.

What about the EC50 ([4]; KRAS^G12V, 20% 1-propanol, 30 min) of the same compound?
The EC50 was 3.6 ± 0.5 nM.

And the EC50 ([4]; KRAS^G12V, 20% 1-propanol, 60 min)?
Its EC50 is 3.8 ± 0.4 nM.

And the EC50 ([4]; KRAS^G12V, 20% 1-propanol, 90 min)?
The EC50 was 5.2 ± 1.2 nM.

What about the EC50 ([4]; KRAS^G12V, 20% 1-propanol, 120 min) of the same compound?
The EC50 was 5.2 ± 0.7 nM.
